Laboratory results published in US20240376121A1, “COMPOUNDS AND USES THEREOF” (Foghorn Therapeutics Inc., priority 2021, published 2024).

Legend:
[1] = target: T1, HiBit-BRG1 fusion protein (Homo sapiens, UniProt P51532); test: HiBiT-BRG1 cell-based degradation assay (Nano-Glo HiBiT Lytic Detection); details: stable HeLa cell line expressing HiBit-BRG1 and LgBit, 24 h incubation; for Dmax: top dose 30 μM, read-out: BRG1 HiBit Degradation Maximum (%); for DC50: read-out: BRMG1 HiBit Degradation IC50
T1 construct: expressed in transfected cells
T1 sequence (P51532 whole entry, the tested form may be a part): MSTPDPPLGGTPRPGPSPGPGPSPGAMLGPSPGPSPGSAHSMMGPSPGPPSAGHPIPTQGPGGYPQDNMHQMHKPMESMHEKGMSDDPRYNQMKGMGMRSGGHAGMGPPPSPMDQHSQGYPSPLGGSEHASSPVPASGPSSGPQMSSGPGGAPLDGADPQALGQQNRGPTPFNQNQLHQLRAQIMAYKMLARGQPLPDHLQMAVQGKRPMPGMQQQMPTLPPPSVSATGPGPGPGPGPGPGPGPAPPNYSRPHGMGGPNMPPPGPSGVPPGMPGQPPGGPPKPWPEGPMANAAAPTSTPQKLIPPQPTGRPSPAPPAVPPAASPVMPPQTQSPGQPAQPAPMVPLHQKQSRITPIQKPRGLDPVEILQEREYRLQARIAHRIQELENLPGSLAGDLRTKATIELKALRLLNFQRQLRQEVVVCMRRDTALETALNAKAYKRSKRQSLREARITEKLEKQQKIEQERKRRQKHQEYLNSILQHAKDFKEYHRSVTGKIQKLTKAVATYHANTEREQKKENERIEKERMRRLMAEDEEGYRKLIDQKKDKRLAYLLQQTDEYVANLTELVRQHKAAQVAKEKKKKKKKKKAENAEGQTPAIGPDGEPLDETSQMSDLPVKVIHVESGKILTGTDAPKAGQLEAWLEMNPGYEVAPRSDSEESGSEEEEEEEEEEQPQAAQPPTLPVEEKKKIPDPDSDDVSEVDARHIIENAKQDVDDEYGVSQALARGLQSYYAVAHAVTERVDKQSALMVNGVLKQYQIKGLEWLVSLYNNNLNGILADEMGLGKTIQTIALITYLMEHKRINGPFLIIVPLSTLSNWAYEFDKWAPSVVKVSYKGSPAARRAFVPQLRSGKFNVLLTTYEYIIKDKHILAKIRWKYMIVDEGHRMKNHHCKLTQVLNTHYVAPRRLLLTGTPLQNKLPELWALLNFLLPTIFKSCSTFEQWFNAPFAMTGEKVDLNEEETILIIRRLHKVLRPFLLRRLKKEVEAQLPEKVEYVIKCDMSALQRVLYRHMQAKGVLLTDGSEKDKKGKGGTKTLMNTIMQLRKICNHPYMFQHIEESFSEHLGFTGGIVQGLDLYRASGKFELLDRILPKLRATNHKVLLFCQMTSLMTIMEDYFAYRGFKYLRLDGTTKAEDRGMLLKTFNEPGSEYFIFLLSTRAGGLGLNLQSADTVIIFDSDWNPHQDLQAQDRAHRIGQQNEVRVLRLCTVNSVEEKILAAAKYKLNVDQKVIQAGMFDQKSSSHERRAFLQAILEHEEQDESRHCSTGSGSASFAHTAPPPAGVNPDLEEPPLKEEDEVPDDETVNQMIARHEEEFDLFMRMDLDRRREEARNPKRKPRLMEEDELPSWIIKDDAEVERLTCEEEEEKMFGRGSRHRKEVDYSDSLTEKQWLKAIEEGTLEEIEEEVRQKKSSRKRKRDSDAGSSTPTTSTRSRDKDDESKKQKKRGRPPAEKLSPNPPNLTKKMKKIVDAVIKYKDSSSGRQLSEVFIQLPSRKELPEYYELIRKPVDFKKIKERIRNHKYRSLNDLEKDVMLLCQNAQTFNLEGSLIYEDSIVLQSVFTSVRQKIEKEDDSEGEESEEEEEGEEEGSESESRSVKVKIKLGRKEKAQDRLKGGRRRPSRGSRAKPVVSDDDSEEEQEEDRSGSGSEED
Outline: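 HeLa cells stably expressing HiBiT-BRG1 and LgBiT treated 24 h with 10-point 3-fold dilutions (top 30 μM, duplicate). Luminescence read after Nano-Glo HiBiT lytic reagent; % degradation relative to DMSO (high control) and 2 μM reference BRM/BRG1 degrader (low control).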

HiBit-BRM fusion protein = target: T2, HiBit-BRM fusion protein (Homo sapiens, UniProt P51531); test: HiBiT-BRM cell-based degradation assay (Nano-Glo HiBiT Lytic Detection); details: stable HeLa cell line expressing HiBiT-BRM, 24 h incubation; for BRM HiBit Degradation Maximum (%): top dose 30 μM; for DC50: read-out: BRM HiBit Degradation IC50
T2 construct: expressed in transfected cells
T2 sequence (P51531 whole entry, the tested form may be a part): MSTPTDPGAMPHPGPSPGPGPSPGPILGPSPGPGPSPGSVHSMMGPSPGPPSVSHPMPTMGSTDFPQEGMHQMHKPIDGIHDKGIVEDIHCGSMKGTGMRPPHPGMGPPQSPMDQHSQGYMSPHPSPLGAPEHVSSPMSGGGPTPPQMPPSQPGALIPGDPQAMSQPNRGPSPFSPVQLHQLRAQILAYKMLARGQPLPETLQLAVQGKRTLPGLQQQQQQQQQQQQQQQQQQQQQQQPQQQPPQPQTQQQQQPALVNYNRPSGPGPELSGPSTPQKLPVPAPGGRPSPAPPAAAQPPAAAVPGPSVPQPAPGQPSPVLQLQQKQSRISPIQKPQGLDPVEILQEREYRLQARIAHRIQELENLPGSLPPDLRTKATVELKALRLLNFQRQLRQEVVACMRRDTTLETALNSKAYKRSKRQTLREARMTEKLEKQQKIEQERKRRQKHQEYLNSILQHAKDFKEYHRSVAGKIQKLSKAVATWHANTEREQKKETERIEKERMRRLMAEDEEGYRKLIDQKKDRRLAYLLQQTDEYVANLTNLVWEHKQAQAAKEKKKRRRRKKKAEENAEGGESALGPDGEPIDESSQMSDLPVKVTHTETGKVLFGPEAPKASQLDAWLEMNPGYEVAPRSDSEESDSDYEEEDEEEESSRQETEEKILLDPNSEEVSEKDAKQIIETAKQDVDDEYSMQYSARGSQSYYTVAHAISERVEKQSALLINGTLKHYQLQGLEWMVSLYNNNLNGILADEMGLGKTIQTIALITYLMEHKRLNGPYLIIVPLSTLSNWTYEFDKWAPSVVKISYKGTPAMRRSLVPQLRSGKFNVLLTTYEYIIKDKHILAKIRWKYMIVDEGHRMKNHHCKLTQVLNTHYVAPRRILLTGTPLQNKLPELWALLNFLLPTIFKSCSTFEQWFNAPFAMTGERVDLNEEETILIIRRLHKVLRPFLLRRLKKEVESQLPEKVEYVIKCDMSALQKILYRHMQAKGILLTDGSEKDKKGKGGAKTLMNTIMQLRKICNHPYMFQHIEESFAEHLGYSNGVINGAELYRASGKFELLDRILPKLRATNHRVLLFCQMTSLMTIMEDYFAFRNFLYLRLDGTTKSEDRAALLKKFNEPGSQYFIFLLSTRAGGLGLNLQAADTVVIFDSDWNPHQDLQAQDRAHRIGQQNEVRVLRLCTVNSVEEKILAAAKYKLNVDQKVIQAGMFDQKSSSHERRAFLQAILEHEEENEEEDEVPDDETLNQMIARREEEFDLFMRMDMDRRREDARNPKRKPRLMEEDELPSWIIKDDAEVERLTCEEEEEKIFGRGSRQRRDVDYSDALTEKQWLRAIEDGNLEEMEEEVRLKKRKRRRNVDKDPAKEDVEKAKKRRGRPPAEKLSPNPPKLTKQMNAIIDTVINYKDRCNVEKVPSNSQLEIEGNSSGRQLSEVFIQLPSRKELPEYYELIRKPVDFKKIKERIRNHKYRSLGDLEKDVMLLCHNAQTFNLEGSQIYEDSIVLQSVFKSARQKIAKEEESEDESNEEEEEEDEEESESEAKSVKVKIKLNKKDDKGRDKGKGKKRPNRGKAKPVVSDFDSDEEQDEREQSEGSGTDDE
Outline: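 Luminescence from reconstituted NanoBiT luciferase in lysed HeLa HiBiT-BRM cells served as the measure of remaining BRM after 24 h treatment. Compounds were tested from 30 μM final downward in 3-fold steps. DMSO and 2 μM of a standard BRM/BRG1 degrader defined the scale limits.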

| SMILES | Dmax [1] [%] | DC50 [1] [nM] | DC50 (HiBit-BRM fusion protein) [nM] | BRM HiBit Degradation Maximum (%) (HiBit-BRM fusion protein) |
| --- | --- | --- | --- | --- |
| Cc1ncsc1-c1ccc([C@H](C)NC(=O)[C@@H]2C[C@@H](O)CN2C(=O)[C@@H](c2cc(N3CCC(CN4CC(c5cc6nnc(-c7ccccc7O)cc6s5)C4)CC3)no2)C(C)C)cc1 [Compound 103, (2S,4R)-4-hydroxy-1-((R)-2-(3-(4-((3-(3-(2-hydroxyphenyl)thieno[3,2-c]pyridazin-6-yl)azetidin-1-yl)methyl)piperidin-1-yl)isoxazol-5-yl)-3-methylbutanoyl)-N-((S)-1-(4-(4-methylthiazol-5-yl)phenyl)ethyl)pyrrolidine-2-carboxamide] | < 50 | ≥ 1000 | ≥ 10 | A (“A” indicates maximum degradation ≥ 75%) |
| Cc1ncsc1-c1ccc([C@H](C)NC(=O)[C@@H]2C[C@@H](O)CN2C(=O)[C@@H](c2cc(N3CCC(N4CC(c5cc6nnc(-c7ccccc7O)cc6s5)C4)CC3)no2)C(C)C)cc1 [Compound 105, (2S,4R)-4-hydroxy-1-((R)-2-(3-(4-(3-(3-(2-hydroxyphenyl)thieno[3,2-c]pyridazin-6-yl)azetidin-1-yl)piperidin-1-yl)isoxazol-5-yl)-3-methylbutanoyl)-N-((S)-1-(4-(4-methylthiazol-5-yl)phenyl)ethyl)pyrrolidine-2-carboxamide] | < 50 | ≥ 1000 | < 10 | A (“A” indicates maximum degradation ≥ 75%) |
| Cc1ncsc1-c1ccc([C@H](C)NC(=O)[C@@H]2C[C@@H](O)CN2C(=O)[C@@H](c2cc(OCC(=O)N3CC(c4cc5nnc(-c6ccccc6O)cc5s4)C3)no2)C(C)C)cc1 [Compound 106, (2S,4R)-4-hydroxy-1-((R)-2-(3-(2-(3-(3-(2-hydroxyphenyl)thieno[3,2-c]pyridazin-6-yl)azetidin-1-yl)-2-oxoethoxy)isoxazol-5-yl)-3-methylbutanoyl)-N-((S)-1-(4-(4-methylthiazol-5-yl)phenyl)ethyl)pyrrolidine-2-carboxamide] | ≥ 50 | ≥ 1000 | ≥ 1000 | C (“C” indicates maximum degradation < 50%) |

More lines, main results first:

| Dmax [1] [%] | DC50 [1] [nM] | DC50 (HiBit-BRM fusion protein) [nM] | SMILES | BRM HiBit Degradation Maximum (%) (HiBit-BRM fusion protein) |
| --- | --- | --- | --- | --- |
| < 50 | ≥ 1000 | ≥ 1000 | Cc1ncsc1-c1ccc([C@H](C)NC(=O)[C@@H]2C[C@@H](O)CN2C(=O)[C@@H](c2cc(OCCN3CCC(c4csc5nnc(-c6ccccc6O)cc45)CC3)no2)C(C)C)cc1 [Compound 101, (2S,4R)-4-hydroxy-1-((R)-2-(3-(2-(4-(3-(2-hydroxyphenyl)thieno[2,3-c]pyridazin-5-yl)piperidin-1-yl)ethoxy)isoxazol-5-yl)-3-methylbutanoyl)-N-((S)-1-(4-(4-methylthiazol-5-yl)phenyl)ethyl)pyrrolidine-2-carboxamide] | C (“C” indicates maximum degradation < 50%) |
| < 50 | ≥ 1000 | ≥ 1000 | Cc1ncsc1-c1ccc([C@H](C)NC(=O)[C@@H]2C[C@@H](O)CN2C(=O)[C@@H](c2cc(OCCN3CC(c4csc5nnc(-c6ccccc6O)cc45)C3)no2)C(C)C)cc1 [Compound 102, (2S,4R)-4-hydroxy-1-((R)-2-(3-(2-(3-(3-(2-hydroxyphenyl)thieno[2,3-c]pyridazin-5-yl)azetidin-1-yl)ethoxy)isoxazol-5-yl)-3-methylbutanoyl)-N-((S)-1-(4-(4-methylthiazol-5-yl)phenyl)ethyl)pyrrolidine-2-carboxamide] | C (“C” indicates maximum degradation < 50%) |
| < 50 | ≥ 1000 | ≥ 10 | Cc1ncsc1-c1ccc([C@H](C)NC(=O)[C@@H]2C[C@@H](O)CN2C(=O)[C@@H](c2cc(OCCCN3CC(c4cc5nnc(-c6ccccc6O)cc5s4)C3)no2)C(C)C)cc1 [Compound 104, (2S,4R)-4-hydroxy-1-((R)-2-(3-(3-(3-(3-(2-hydroxyphenyl)thieno[3,2-c]pyridazin-6-yl)azetidin-1-yl)propoxy)isoxazol-5-yl)-3-methylbutanoyl)-N-((S)-1-(4-(4-methylthiazol-5-yl)phenyl)ethyl)pyrrolidine-2-carboxamide] | B (“B” indicates maximum degradation ≥ 50%) |
